# What was measured:
# mCAR T176V / T176L = assay: luciferase reporter gene activation assay (PBREM) in HepG2 cells, mCAR Thr176 mutants; conditions: T176V or T176L; did not require exogenous SRC-1
# [1] = test system: chimeric receptors hmm and hhm; assay: luciferase reporter assay in HepG2 cells, chimeric receptors with mouse LBD; format: cell-based, mouse/human; conditions: chimeras hmm and hhm repressed by KN-62
# mCAR L352A = target: T1, mCAR L352A (Mus musculus, UniProt O35627, L352A); assay: luciferase reporter gene activation assay (PBREM) in HepG2 cells, mCAR L352A mutant; format: cell-based; conditions: only in the presence of exogenous SRC-1
# T1 construct: mCAR and hCAR expression vectors were constructed by cloning an entire mCAR; expressed in transfected cells; host or cells: HepG2
# T1 sequence (O35627 1-358 L352A): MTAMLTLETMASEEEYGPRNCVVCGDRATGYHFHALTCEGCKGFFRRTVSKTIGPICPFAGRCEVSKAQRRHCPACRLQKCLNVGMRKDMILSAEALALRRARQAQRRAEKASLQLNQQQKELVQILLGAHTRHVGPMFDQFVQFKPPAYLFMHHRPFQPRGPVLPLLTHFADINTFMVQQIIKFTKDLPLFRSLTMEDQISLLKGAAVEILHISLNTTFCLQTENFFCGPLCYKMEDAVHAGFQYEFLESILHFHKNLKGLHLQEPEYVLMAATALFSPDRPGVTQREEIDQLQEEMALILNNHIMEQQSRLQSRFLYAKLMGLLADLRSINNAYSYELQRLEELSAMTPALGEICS
# From the text: To examine the role of Leu352 in mCAR activity, site-directed mutagenesis was used as described in EXAMPLES 2 and 6.
smiles,measurement,setting,value
"Clc1cnc(Oc2ccc(Oc3ncc(Cl)cc3Cl)cc2)c(Cl)c1 [TCPOBOP, 1,4-bis [2-(3,5-dichloropyridyloxy)]benzene]",activation of mutated mCAR,mCAR T176V / T176L,effectively activated
same,re-activation of KN-62-repressed chimeric receptors,[1],re-activated
same,activation of L352A mutant,mCAR L352A,activated
